For one assay, the system named is M. tuberculosis. Nature of the assay: Mycobacteria susceptibility testing, Microplate Alamar Blue Assay, Mtu MIC. The class given is cell-based, Mycobacterium tuberculosis (Mtu). The settings on record: Mycobacterium tuberculosis. A general note: Resazurin is reduced to fluorescent resorufin, in cell work by metabolically active cells.
Another assay deals with Eco-tolC. Nature of the assay: Bacterial susceptibility testing in liquid media, Eco-tolC MIC. The settings on record: Escherichia coli, read-out: Eco-tolC MIC.
Another assay concerns Spn548. The assay can be described thus: Bacterial susceptibility testing in liquid media, Spn548 MIC. The settings on record: Streptococcus pneumoniae, 24 h, read-out: Spn548 Mean MIC.
Another assay addresses T1, Msm. GyrB (Mycolicibacterium smegmatis, UniProt A0QNE0).
T1 construct: 15 nM Msm; GyrB, 650 μM ATP, and compound in dimethyl sulfoxide
The assay can be described thus: Msmegmatis GyrB enzyme assay (ATPase, malachite green phosphate detection). The class given is biochemical. The settings on record: read-out: Msm_GyrB IC50. As for the experimental part: Compounds may be tested for inhibition of GyrB ATPase activity using an ammonium molybdate/malachite green-based phosphate detection assay (Lanzetta, P. A., L. J. Alvarez, P. S. Reinach, and O. A. Candia, 1979, 100: 95-97; Innova Biosciences malachite green detection kit). Assays can be performed in multi-well plates in 50 μl reactions containing: 50 mM HEPES buffer pH 7.7, 250 mM potassium glutamate, 200 mM potassium chloride, 2 mM magnesium chloride, 2% glycerol, 1 mM 1,4-Dithio-DL-threitol, 0.005% Brij-35, 15 nM Msm. GyrB, 650 μM ATP, and compound in dimethyl sulfoxide. Reactions can be quenched with 12.5 μl of ammonium molybdate/malachite green detection reagent (Pi color lock gold & accelerator mix; Innova Biosciences), followed by the addition of 5 μl of stabilizer (Innova Biosciences) after 5 min of incubation.

Values after ≈ are worked out from the molar mass of the structure shown.

In patent US20100137303A1, “NEW COMPOUND 255” (AstraZeneca AB, priority 2008, published 2010) one finds MIC and IC50 data, which are given here for ten compounds.

T1 sequence (A0QNE0 whole entry): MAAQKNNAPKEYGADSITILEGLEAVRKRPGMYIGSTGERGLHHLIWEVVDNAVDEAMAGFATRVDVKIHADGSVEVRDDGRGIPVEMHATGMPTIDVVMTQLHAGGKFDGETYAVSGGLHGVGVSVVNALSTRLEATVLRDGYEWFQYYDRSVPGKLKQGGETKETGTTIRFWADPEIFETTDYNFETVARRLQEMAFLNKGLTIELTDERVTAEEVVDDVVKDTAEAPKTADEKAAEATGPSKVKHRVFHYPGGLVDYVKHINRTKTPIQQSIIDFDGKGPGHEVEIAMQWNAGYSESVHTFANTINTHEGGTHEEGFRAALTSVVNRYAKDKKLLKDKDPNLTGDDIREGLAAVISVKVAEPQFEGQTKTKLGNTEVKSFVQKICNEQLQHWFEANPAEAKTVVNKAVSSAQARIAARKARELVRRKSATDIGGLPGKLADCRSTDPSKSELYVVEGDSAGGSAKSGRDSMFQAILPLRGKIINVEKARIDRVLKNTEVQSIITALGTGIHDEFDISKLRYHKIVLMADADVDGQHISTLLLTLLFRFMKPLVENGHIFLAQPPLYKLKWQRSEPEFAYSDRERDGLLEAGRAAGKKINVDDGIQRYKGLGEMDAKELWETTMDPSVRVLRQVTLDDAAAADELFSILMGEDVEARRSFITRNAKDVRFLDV
Source text for Eco-tolC: Compounds may be tested for antimicrobial activity by susceptibility testing in liquid media. Compounds may be dissolved in dimethylsulfoxide and tested in 10 doubling dilutions in the susceptibility assays. The organisms used in the assay may be grown overnight on suitable agar media and then suspended in a liquid medium appropriate for the growth of the organism. The suspension can be a 0.5 McFarland and a further 1 in 10 dilution can be made into the same liquid medium to prepare the final organism suspension in 100 μL. Plates can be incubated under appropriate conditions at 37° C. for 24 hrs prior to reading.

By MIC is commonly meant the smallest concentration in the dilution series that meets the test's criterion for growth inhibition. In general, IC50 refers to the concentration that gives 50% inhibition. As to `C=CCNC(=O)Nc1nc2cc(-c3cnc(OC)nc3)c(OCCN3CCCC3)nc2s1` [Example 20, 1-[6-(2-methoxypyrimidin-5-yl)-5-(2-pyrrolidin-1-ylethoxy)[1,3]thiazolo[5,4-b]pyridin-2-yl]-3-prop-2-en-1-ylurea], the MIC against M. tuberculosis, in the assay with Eco-tolC and with Spn548 was over 32 µg/mL throughout. Also, the IC50 on Msm. GyrB turned out to be 259 nM.

With `C=CCNC(=O)Nc1nc2cc(-c3cncc(C(=O)NCC4CCOCC4)c3)cnc2s1` [Example 21, 5-{2-[(prop-2-en-1-ylcarbamoyl)amino][1,3]thiazolo[5,4-b]pyridin-6-yl}-N-(tetrahydro-2H-pyran-4-ylmethyl)pyridine-3-carboxamide], the MIC against M. tuberculosis was over 64 µg/mL; with Eco-tolC, over 32 µg/mL; in the assay on Spn548 it was over 32 µg/mL. The IC50 at Msm. GyrB worked out at 236 nM.

`C=CCNC(=O)Nc1nc2cc(-c3cncc(C(=O)NC)c3)cnc2s1` [Example 22, N-methyl-5-{2-[(prop-2-en-1-ylcarbamoyl)amino][1,3]thiazolo[5,4-b]pyridin-6-yl}pyridine-3-carboxamide]: the MIC is over 64 µg/mL in the assay with M. tuberculosis, over 32 µg/mL in the assay with Eco-tolC and over 32 µg/mL in the assay with Spn548. Besides, the IC50 at Msm. GyrB amounted to 323 nM.

In the case of `C=CCNC(=O)Nc1nc2cc(-c3cncc(C(=O)NCC)c3)cnc2s1` [Example 23, N-ethyl-5-{2-[(prop-2-en-1-ylcarbamoyl)amino][1,3]thiazolo[5,4-b]pyridin-6-yl}pyridine-3-carboxamide], the MIC was over 64 µg/mL against M. tuberculosis, over 32 µg/mL with Eco-tolC and over 32 µg/mL in the assay with Spn548. Moreover, the IC50 at Msm. GyrB was 404 nM.

As to `C=CCNC(=O)Nc1nc2cc(-c3cncc(C(=O)NCCC(C)C)c3)cnc2s1` [Example 24, N-(3-methylbutyl)-5-{2-[(prop-2-en-1-ylcarbamoyl)amino][1,3]thiazolo[5,4-b]pyridin-6-yl}pyridine-3-carboxamide], the minimum inhibitory concentration (MIC) is over 64 µg/mL in the assay with M. tuberculosis, over 32 µg/mL in the assay with Eco-tolC and over 32 µg/mL in the assay on Spn548. Moreover, the IC50 on Msm. GyrB came out at 583 nM.

On to `C=CCNC(=O)Nc1nc2cc(-c3cncc(C(=O)N4CCOCC4)c3)cnc2s1` [Example 25, 1-{6-[5-(morpholin-4-ylcarbonyl)pyridin-3-yl][1,3]thiazolo[5,4-b]pyridin-2-yl}-3-prop-2-en-1-ylurea], for which the MIC in the assay with M. tuberculosis, with Eco-tolC and with Spn548 was over 32 µg/mL in each case. Further, the IC50 at Msm. GyrB worked out at 1440 nM.

Turning to `C=CCNC(=O)Nc1nc2cc(-c3cncc(C(=O)NCC(C)C)c3)cnc2s1` [Example 26, N-(2-methylpropyl)-5-{2-[(prop-2-en-1-ylcarbamoyl)amino][1,3]thiazolo[5,4-b]pyridin-6-yl}pyridine-3-carboxamide], the MIC with M. tuberculosis, in the assay on Eco-tolC and with Spn548 was over 32 µg/mL each time. For the same compound, the half-inhibitory concentration (IC50) at Msm. GyrB came to 394 nM.

On to `C=CCNC(=O)Nc1nc2cc(-c3cc[nH]n3)c(C)nc2s1` [Example 27, 1-[5-methyl-6-(1H-pyrazol-3-yl)[1,3]thiazolo[5,4-b]pyridin-2-yl]-3-prop-2-en-1-ylurea], for which the minimal inhibitory concentration (MIC) against M. tuberculosis is 11.3 µg/mL (≈ 36 µM); in the assay with Eco-tolC, over 22.6 µg/mL; in the assay with Spn548, 2 µg/mL (≈ 6.36 µM). Moreover, at Msm. GyrB, the half-maximal inhibitory concentration (IC50) worked out at 1840 nM.

For `C=CCNC(=O)Nc1nc2cc(-c3cncnc3)c(OCCOC)nc2s1` [Example 30, 1-[5-(2-methoxyethoxy)-6-pyrimidin-5-yl[1,3]thiazolo[5,4-b]pyridin-2-yl]-3-prop-2-en-1-ylurea], the MIC against M. tuberculosis worked out at 2 µg/mL (≈ 5.18 µM); in the assay with Eco-tolC it was 0.609 µg/mL (≈ 1.58 µM); in the assay with Spn548, 0.152 µg/mL (≈ 0.394 µM). Moreover, on Msm. GyrB, the half-maximal inhibitory concentration (IC50) came to 60.3 nM.

Take `C=CCNC(=O)Nc1nc2cc(-c3nc(C(=O)O)cs3)cnc2s1` [Example 31, 2-{2-[(prop-2-en-1-ylcarbamoyl)amino][1,3]thiazolo[5,4-b]pyridin-6-yl}-1,3-thiazole-4-carboxylic acid]: the minimum inhibitory concentration (MIC) against M. tuberculosis, with Eco-tolC and with Spn548 was over 32 µg/mL throughout. In addition, the concentration for half-maximal inhibition (IC50) on Msm. GyrB amounted to 8940 nM.
